Data published in patent publication US12024571B2, “Anti-erythropoietin receptor peptide” (Epo-Med Inc., priority 2018, dated 2024).
Bridge positions count the residues as written; N and C are the ends. Square brackets hold non-standard residues; d marks the D form. Peptide text beside a SMILES is read from it. * marks the point of attachment. Ala(benzothiazol-2-yl) = N[C@@H](Cc1nc2ccccc2s1)C(=O)O; Phe(3,4-F2) = N[C@@H](Cc1ccc(F)c(F)c1)C(=O)O; Phe(3-Cl) = N[C@@H](Cc1cccc(Cl)c1)C(=O)O; Phe(4-Cl) = N[C@@H](Cc1ccc(Cl)cc1)C(=O)O; Phe(4-F) = N[C@@H](Cc1ccc(F)cc1)C(=O)O; Propionyl = CCC(=O)*

Legend:
[1] = test system: human liver cancer derived HepG2 cells; assay: Lethal effect of synthetic peptides on HepG2 cells (Trypan blue positive cell count); type: cell-based; conditions: 120, 60, 30 or 15 μM, 24 hours; FIGS. 34 to 37
[2] = test system: human liver cancer HepG2 cells; assay: Granule leakage of HepG2 cells exposed to peptides, under a microscope; type: cell-based; conditions: HepG2 cells exposed to peptide
Source text: The peptides synthesized above were exposed to human liver cancer HepG2 cells and the leakage of granules under a microscope was studied. […] In view of the above, peptides GT-11258, GT-11261, and GT-11274 were expected to have a relatively strong activity.

[3] = test system: human pancreatic cancer derived AsPC-1 cells; assay: Tumor growth in AsPC-1 cancer-bearing nude mouse model; type: in vivo; conditions: intraperitoneal, 3 times daily, total 0.2 mg/day, 3 times a week for 2 weeks; FIG. 40
Experimental: Human pancreatic cancer derived AsPC-1 cells (ECACC, 96020930) were cultured and collected in the same manner as Example 3, suspended in the RPMI-1640 medium described above comprising 10% Matrigel (BD Bioscience, 354234), and transplanted subcutaneously to the right side on the back of a 6-week-old male nude mouse (SLC, BALB/cSlc-nu/nu) (5×10^6/0.1 mL/mouse). The length (L) and width (W) of the tumor were measured using a digital caliper. When the tumor volume (V) calculated from the formula V=L×W^2/2 reached about 150 to 200 mm^3, the mice were separated into groups and administered with test compounds (total of 8 compounds including GT-11263). Saline was administered to a control group. The compounds were administered intraperitoneally (0.1 mL/mouse, 3 to 5 mice/test compound) 3 times daily (one hour interval, a total of 0.2 mg/day), 3 times a week for 2 weeks. The tumor size and body weight were measured twice a week to monitor the status of tumor growth and the effect of the administration of test compounds.
In the same manner as Example 5, human pancreatic cancer derived AsPC-1 cells were transplanted subcutaneously to the right side on the back of a 6-week-old male nude mouse (SLC, BALB/cSlc-nu/nu) (5×10^6/0.1 mL/mouse). The length (L) and width (W) of the tumor were measured using a digital caliper. When the tumor volume (V) calculated from the formula V=L×W^2/2 reached about 150 to 200 mm^3, the mice were separated into groups and administered with test compounds (GT-11269, GT-11309, and GT-11350). Saline was administered to a control group. The compounds were administered intraperitoneally (0.1 mL/mouse, 5 mice/test compound) 3 times daily (one hour interval, a total of 0.5 mg/day), twice a week for 4 weeks. The tumor size and body weight were measured twice a week to monitor the effect of the administration of test compounds (FIG. 45).
(§1) In the same manner as Example 5, human pancreatic cancer derived AsPC-1 cells were transplanted subcutaneously to the right side on the back of a 6-week-old male nude mouse (SLC, BALB/cSlc-nu/nu), and when the tumor volume (V) reached about 150 to 200 mm^3, the mice were separated into groups and administered with test compounds (GT-11350). Saline was administered to a control group. The compounds were administered intraperitoneally (0.1 mL/mouse) 3 times daily (one hour interval, a total of 0.1 mg, 0.2 mg, or 0.4 mg/day), twice a week for 4 weeks. The tumor size and body weight were measured twice a week to monitor the effect of the dose of test compounds (FIG. 49).
as §1, with “of” for “of 0.1 mg,”, “mg/day)” for “mg,”, “once daily (0.2” for “0.4”, “administration” for “dose”, “compounds.” for “compounds (FIG. 49).”

[4] = test system: human pancreatic cancer derived AsPC-1 cells; assay: AsPC-1 cell proliferation, WST assay; type: cell-based; conditions: 72 hours
Experimental: Human pancreatic cancer derived AsPC-1 cells (ECACC, 96020930) were passaged (twice/week) under the condition of 37° C. and 5% CO2-95% air using an RPMI-1640 medium (Sigma, R8758-500 ML) comprising 10% fetal bovine serum (biowest, S182H-500) and 1 mM sodium pyruvate (gibco, 11360-070). The AsPC-1 cells were collected from a culture dish using 0.05% trypsin-0.02% EDTA solution (Sigma, T4174-100 ML). The cells were suspended in the medium and then seeded on a 96-well microplate (3×10^3/0.05 mL/well). After culturing the cells overnight, a medium comprising the test compounds (total of 43 compounds, final concentration of 150 μM) was added (0.05 mL/well, 3 wells/test compound). After 72 hours, the cell proliferation capability for each well was measured by a WST assay (DOJINDO LABORATORIES, Cell Counting Kit-8), and the inhibition ratio for each test compound against the control (test compound-free well) was calculated.
A WST assay is a viable cell count measuring method, which uses water-soluble tetrazolium salt WST-8 as a coloring reagent and uses water-soluble formazan generated by reduction of WST-8 as an indicator of viable cell count. NADH produced by a dehydrogenase in a cell converts WST-8 to water-soluble formazan. Since the generated water-soluble formazan has the maximum absorbance at about 450 nm, the viable cell count is indicated by measuring the absorbance at such a wavelength region.
Human pancreatic cancer derived AsPC-1 cells (ECACC, 96020930) were cultured, collected, and seeded on a 96-well microplate (3×10^3/0.05 mL/well) in the same manner as Example 3. After culturing the cells overnight, a medium comprising the test compounds (10, 30, or 100 μM) was added (0.05 mL/well, 3 wells/test compound). After 72 hours, the cell proliferation capability for each well was measured by a WST assay (DOJINDO LABORATORIES, Cell Counting Kit-8), and the inhibition ratio for each test compound against the control (test compound-free well) was computed.

[5] = test system: human T cell leukemia derived ATL-2 cells; assay: ATL-2 cell proliferation, WST assay; type: cell-based; conditions: 150 μM, 72 hours, FIG. 39
Experimental: Human T cell leukemia derived ATL-2 cells (provided by Dr. Maeda at the Kyoto University) were passaged (twice/week) under the condition of 37° C. and 5% CO2-95% air using an RPMI-1640 medium (Sigma, R8758-500 mL) comprising 10% fetal bovine serum (biowest, S182H-500). The ATL-2 cells were collected from a culture flask. The cells were suspended in the medium and then seeded on a 96-well microplate (3×10^3/0.05 mL/well). After culturing the cells overnight, a medium comprising the test compounds (total of 32 compounds, final concentration of 150 μM) was added (0.05 mL/well, 3 wells/test compound). After 72 hours, the cell proliferation capability for each well was measured by a WST assay (DOJINDO LABORATORIES, Cell Counting Kit-8), and the inhibition ratio for each test compound against the control (test compound-free well) was calculated.

| Compound | HepG2 cell killing effect compared with YS12 (Trypan blue positive cells per 1 mm^2) [1] | leakage of granules under a microscope [2] | other results |
| --- | --- | --- | --- |
| Ac-SCHFGPLT(8-quinolylalanine)VCK-NH2 (Ac-SCHFGPLT[8‑quinolylalanine]VCK-NH2; disulfide 2-11 (inferred)) [GT-11274] | equivalent or greater than that of YS12 | significant granule leakage |  |
| Ac-SCH(phenethylglycine)GPLTWVCK-NH2 (Ac-SCH[phenethylglycine]GPLTWVCK-NH2; disulfide 2-11 (inferred)) [GT-11263] |  |  | antitumor effect (relative tumor volume) [3]: potent antitumor effect |
| (propionyl)-SCHFGPLTWVCK-NH2 (Propionyl-SCHFGPLTWVCK-NH2; disulfide 2-11 (inferred)) [GT-11257] |  |  | proliferation inhibiting action on AsPC-1 cells (inhibition ratio against control) ([4]; 150 μM, FIG. 38): potent proliferation inhibiting action |
| Ac-SCHYGPLT(2-quinolylalanine)VCK-NH2 (Ac-SCHYGPLT[2‑quinolylalanine]VCK-NH2; disulfide 2-11 (inferred)) [GT-11308] | equivalent or greater than that of YS12 |  | proliferation inhibiting action on ATL-2 cells (inhibition ratio against control) [5]: potent proliferation inhibiting action |
| Ac-SCH(3,4-difluoro-Phe)GPLT(2-quinolylalanine)VCK-NH2 [GT-11304] | equivalent or greater than that of YS12 |  |  |
| Ac-SCH(p-fluoro-Phe)GPLT(2-quinolylalanine)VCK-NH2 [GT-11306] | equivalent or greater than that of YS12 |  |  |
| Ac-SCH(3,4-difluoro-Phe)GPLT(8-quinolylalanine)VCK-NH2 [GT-11303] | equivalent or greater than that of YS12 |  |  |
| Ac-SCH(p-chloro-Phe)GPLTWVCK-NH2 (Ac-SCH[Phe(4-Cl)]GPLTWVCK-NH2; disulfide 2-11 (inferred)) [GT-11259] | equivalent or greater than that of YS12 | relatively low degree of granule leakage |  |
| CSCC[C@@H]1NC(=O)[C@@H]2CCCN2C(=O)CNC(=O)[C@H](Cc2ccccc2)NC(=O)[C@H](Cc2c[nH]cn2)NC(=O)[C@@H](NC(=O)[C@H](CO)NC(C)=O)CSSC[C@@H](C(=O)N[C@@H](CCCCN)C(N)=O)NC(=O)[C@H](C(C)C)NC(=O)[C@H](Cc2c[nH]c3ccccc23)NC(=O)[C@H]([C@@H](C)O)NC1=O [GT-11269, Ac-SCHFGPMTWVCK-NH2] (Ac-SCHFGPMTWVCK-NH2; disulfide 2-11) |  |  | antitumor effect (relative tumor volume) [3]: potent and had an early manifestation of effect; proliferation inhibiting action against AsPC-1 cells (inhibition ratio against control) ([4]; 10, 30 or 100 μM, FIG. 43): potent proliferation inhibiting action; proliferation inhibiting action on ATL-2 cells (inhibition ratio against control) [5]: potent proliferation inhibiting action |
| Ac-kcvwtlGGfhcs-NH2 (Ac-[dK][dC][dV][dW][dT][dL]GG[dF][dH][dC][dS]-NH2; disulfide 2-11 (inferred)) [GT-11280] | equivalent or greater than that of YS12 |  |  |
| Ac-SCHFGPATWVCK-NH2 (disulfide 2-11 (inferred)) [GT-11268] | equivalent or greater than that of YS12 |  |  |
| Ac-SCH(m-chloro-Phe)GPLTWVCK-NH2 (Ac-SCH[Phe(3-Cl)]GPLTWVCK-NH2; disulfide 2-11 (inferred)) [GT-11260] | equivalent or greater than that of YS12 | relatively low degree of granule leakage |  |
| Ac-SCH(p-fluoro-Phe)GPLTWVCK-NH2 (Ac-SCH[Phe(4-F)]GPLTWVCK-NH2; disulfide 2-11 (inferred)) [GT-11258] |  | significant granule leakage |  |
| Ac-SCH(p-fluoro-Phe)GPLT(2-benzothiazolylalanine)VCK-NH2 [GT-11307] | equivalent or greater than that of YS12 |  |  |
| Ac-SCHYGPLTWVCK-NH2 (disulfide 2-11 (inferred)) [GT-11261] | equivalent or greater than that of YS12 | significant granule leakage |  |
| Ac-SCH(3,4-difluoro-Phe)GPLT(2-benzothiazolylalanine)VCK-NH2 (Ac-SCH[Phe(3,4-F2)]GPLT[Ala(benzothiazol-2-yl)]VCK-NH2; disulfide 2-11 (inferred)) [GT-11305] | equivalent or greater than that of YS12 |  |  |
